From patent US9388140B2, “Substituted benzimidazoles” (priority 2011, dated 2016) come the findings set out here.

In this assay the target is human kinase Mps-1 (Homo sapiens (Human), UniProt P33981). The assay is described as follows: Mps-1 kinase assay (TR-FRET). The format is biochemical. The note with it: N-terminally GST-tagged human full length recombinant Mps-1; 10 μM ATP; 1 μM biotinylated peptide substrate; read-out: Mps1 IC50. The procedure, abridged:
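TR-FRET signal between a Europium anti-phospho-Ser/Thr antibody and streptavidin-XLent reported phosphorylation of a biotinylated peptide by GST-tagged full-length Mps-1. Enzyme was near 1 nM final, chosen per lot for linearity.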

human kinase Mps-1, sequence (P33981 whole entry): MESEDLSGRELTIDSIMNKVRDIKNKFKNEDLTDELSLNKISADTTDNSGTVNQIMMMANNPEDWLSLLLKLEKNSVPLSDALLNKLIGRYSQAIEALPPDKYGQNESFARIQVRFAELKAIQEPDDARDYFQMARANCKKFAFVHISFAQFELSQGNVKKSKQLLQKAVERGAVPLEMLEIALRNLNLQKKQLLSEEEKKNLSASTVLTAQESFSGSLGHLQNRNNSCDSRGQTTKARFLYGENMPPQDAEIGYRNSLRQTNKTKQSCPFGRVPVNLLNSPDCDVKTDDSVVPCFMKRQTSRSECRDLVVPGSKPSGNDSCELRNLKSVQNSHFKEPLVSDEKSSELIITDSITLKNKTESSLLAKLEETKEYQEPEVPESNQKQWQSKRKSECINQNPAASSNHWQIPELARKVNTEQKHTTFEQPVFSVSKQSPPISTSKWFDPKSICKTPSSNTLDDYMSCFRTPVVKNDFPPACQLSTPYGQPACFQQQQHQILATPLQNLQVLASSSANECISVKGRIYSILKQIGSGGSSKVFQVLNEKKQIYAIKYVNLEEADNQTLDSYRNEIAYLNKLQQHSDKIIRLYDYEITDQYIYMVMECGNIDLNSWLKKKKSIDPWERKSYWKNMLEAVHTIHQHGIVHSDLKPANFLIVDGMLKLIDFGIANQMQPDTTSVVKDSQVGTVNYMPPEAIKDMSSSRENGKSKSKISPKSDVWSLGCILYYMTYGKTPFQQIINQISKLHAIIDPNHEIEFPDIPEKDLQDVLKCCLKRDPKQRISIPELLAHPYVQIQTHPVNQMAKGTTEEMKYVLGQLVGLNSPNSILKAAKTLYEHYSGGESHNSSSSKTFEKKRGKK

For orientation: IC50 means the midpoint of a concentration-inhibition curve. Take `CNC(=O)c1ccc(-n2cnc3c(NCCC(F)(F)F)cc(Oc4cccc(F)c4OC)cc32)cc1C` [Example 72, 4-{6-(3-fluoro-2-methoxyphenoxy)-4-[(3,3,3-trifluoropropyl)amino]-1H-benzimidazol-1-yl}-N,2-dimethylbenzamide]: the 50% inhibitory concentration (IC50) was 33 nM. For the compound `COc1cc(C#N)ccc1Oc1cc(NCCC(F)(F)F)c2ncn(-c3ccc(C(=O)NC4CC4)c(C)c3)c2c1` [Example 73, 4-{6-(4-cyano-2-methoxyphenoxy)-4-[(3,3,3-trifluoropropyl)amino]-1H-benzimidazol-1-yl}-N-cyclopropyl-2-methylbenzamide], the IC50 came to 52.2 nM.

For `Cc1cc(-n2cnc3c(NCCC(F)(F)F)cc(Oc4ccc(S(C)(=O)=O)cc4)cc32)ccc1C(=O)NC1CC1` [Example 74, N-cyclopropyl-2-methyl-4-{6-[4-(methylsulfonyl)phenoxy]-4-[(3,3,3-trifluoropropyl)amino]-1H-benzimidazol-1-yl}benzamide], the IC50 came out at 6.4 nM. In the case of `Cc1cc(-n2cnc3c(NCCC(F)(F)F)cc(Oc4ccc(-c5ncco5)cc4)cc32)ccc1C(=O)NC1CC1` [Example 75, N-cyclopropyl-2-methyl-4-{6-[4-(1,3-oxazol-2-yl)phenoxy]-4-[(3,3,3-trifluoropropyl)amino]-1H-benzimidazol-1-yl}benzamide], the IC50 is 21.9 nM. As to `Cc1cc(-n2cnc3c(NCCC(F)(F)F)cc(Oc4ccc(F)c(C(F)(F)F)c4)cc32)ccc1C(=O)NC1CC1` [Example 76, N-cyclopropyl-4-{6-[4-fluoro-3-(trifluoromethyl)phenoxy]-4-[(3,3,3-trifluoropropyl)amino]-1H-benzimidazol-1-yl}-2-methylbenzamide], the IC50 stood at 7.2 nM.

In the case of `Cc1cc(-n2cnc3c(NCCC(F)(F)F)cc(Oc4cccc(C#N)c4)cc32)ccc1C(=O)NC1CC1` [Example 77, 4-{6-(3-cyanophenoxy)-4-[(3,3,3-trifluoropropyl)amino]-1H-benzimidazol-1-yl}-N-cyclopropyl-2-methylbenzamide], the IC50 was determined as 1 nM. Take `Cc1cc(-n2cnc3c(NCCC(F)(F)F)cc(Oc4ccc(-n5cncn5)cc4)cc32)ccc1C(=O)NC1CC1` [Example 78, N-cyclopropyl-2-methyl-4-{6-[4-(1H-1,2,4-triazol-1-yl)phenoxy]-4-[(3,3,3-trifluoropropyl)amino]-1H-benzimidazol-1-yl}benzamide]: the IC50 was 11 nM.

On to `Cc1cc(-n2cnc3c(NCCC(F)(F)F)cc(Oc4cccc(C(=O)NC5CC5)c4)cc32)ccc1C(=O)NC1CC1` [Example 79, N-cyclopropyl-4-{6-[3-(cyclopropylcarbamoyl)phenoxy]-4-[(3,3,3-trifluoropropyl)amino]-1H-benzimidazol-1-yl}-2-methylbenzamide], for which the half-inhibitory concentration (IC50) was 3.9 nM. As for `Cc1cc(-n2cnc3c(NCCC(F)(F)F)cc(Nc4ccccc4O)cc32)ccc1C(=O)NC1CC1` [Example 82, N-cyclopropyl-4-{6-[(2-hydroxyphenyl)amino]-4-[(3,3,3-trifluoropropyl)amino]-1H-benzimidazol-1-yl}-2-methylbenzamide], the IC50 is 3.9 nM. With `Cc1cc(-n2cnc3c(NCCC(F)(F)F)cc(Oc4ccc(O)c(F)c4)cc32)ccc1C(=O)NC1CC1` [Example 83, N-cyclopropyl-4-{6-(3-fluoro-4-hydroxyphenoxy)-4-[(3,3,3-trifluoropropyl)amino]-1H-benzimidazol-1-yl}-2-methylbenzamide] the figure was 0.7 nM; with `CNC(=O)c1ccc(-n2cnc3c(NCC4CCOCC4)cc(Oc4cccc(F)c4F)cc32)cc1C` [Example 84, 4-{6-(2,3-difluorophenoxy)-4-[(tetrahydro-2H-pyran-4-ylmethyl)amino]-1H-benzimidazol-1-yl}-N,2-dimethylbenzamide], 3.4 nM. Take `CCNC(=O)c1ccc(-n2cnc3c(NCC4CCOCC4)cc(Oc4cccc(F)c4F)cc32)cc1C` [Example 85, 4-{6-(2,3-Difluorophenoxy)-4-[(tetrahydro-2H-pyran-4-ylmethyl)amino]-1H-benzimidazol-1-yl}-N-ethyl-2-methylbenzamide]: the IC50 amounted to 3.3 nM. With `CNC(=O)c1ccc(-n2cnc3c(NCC4CCOCC4)cc(Oc4ccc(OC)cc4F)cc32)cc1C` [Example 86, 4-{6-(2-fluoro-4-methoxyphenoxy)-4-[(tetrahydro-2H-pyran-4-ylmethyl)amino]-1H-benzimidazol-1-yl}-N,2-dimethylbenzamide] the figure was 7 nM; with `CCNC(=O)c1ccc(-n2cnc3c(NCC4CCOCC4)cc(Oc4ccc(OC)cc4F)cc32)cc1C` [Example 87, N-ethyl-4-{6-(2-fluoro-4-methoxyphenoxy)-4-[(tetrahydro-2H-pyran-4-ylmethyl)amino]-1H-benzimidazol-1-yl}-2-methylbenzamide], 11.4 nM; with `CNC(=O)c1ccc(-n2cnc3c(NCCC(F)(F)F)cc(Oc4ccc(OC)cc4F)cc32)cc1C` [Example 88, 4-{6-(2-fluoro-4-methoxyphenoxy)-4-[(3,3,3-trifluoropropyl)amino]-1H-benzimidazol-1-yl}-N,2-dimethylbenzamide], 6.7 nM. In the case of `CCNC(=O)c1ccc(-n2cnc3c(NCCC(F)(F)F)cc(Oc4ccc(OC)cc4F)cc32)cc1C` [Example 89, N-ethyl-4-{6-(2-fluoro-4-methoxyphenoxy)-4-[(3,3,3-trifluoropropyl)amino]-1H-benzimidazol-1-yl}-2-methylbenzamide], the IC50 came to 10.8 nM. Take `Cc1cc(-n2cnc3c(NCCC(F)(F)F)cc(Oc4ccc(O)cc4F)cc32)ccc1C(=O)NC1CC1` [Example 90, N-cyclopropyl-4-{6-(2-fluoro-4-hydroxyphenoxy)-4-[(3,3,3-trifluoropropyl)amino]-1H-benzimidazol-1-yl}-2-methylbenzamide]: the IC50 turned out to be 1.1 nM. On to `Cc1cc(-n2cnc3c(NCCC(F)(F)F)cc(Oc4cccc(F)c4O)cc32)ccc1C(=O)NC1CC1` [Example 91, N-cyclopropyl-4-{6-(3-fluoro-2-hydroxyphenoxy)-4-[(3,3,3-trifluoropropyl)amino]-1H-benzimidazol-1-yl}-2-methylbenzamide], for which the IC50 was determined as 0.4 nM.

Turning to `CNC(=O)c1ccc(-n2cnc3c(NCCC(F)(F)F)cc(Oc4cccc(F)c4O)cc32)cc1C` [Example 92, 4-{6-(3-fluoro-2-hydroxyphenoxy)-4-[(3,3,3-trifluoropropyl)amino]-1H-benzimidazol-1-yl}-N,2-dimethylbenzamide], the IC50 came to 3 nM.

In the case of `CCNC(=O)c1ccc(-n2cnc3c(NCCC(F)(F)F)cc(Oc4cccc(F)c4O)cc32)cc1C` [Example 93, N-ethyl-4-{6-(3-fluoro-2-hydroxyphenoxy)-4-[(3,3,3-trifluoropropyl)amino]-1H-benzimidazol-1-yl}-2-methylbenzamide], the IC50 was 4.1 nM. In the case of `CNC(=O)c1ccc(-n2cnc3c(NCCC(F)(F)F)cc(Oc4cccc(O)c4)cc32)cc1C` [Example 94, 4-{6-(3-hydroxyphenoxy)-4-[(3,3,3-trifluoropropyl)amino]-1H-benzimidazol-1-yl}-N,2-dimethylbenzamide], the IC50 amounted to 3.1 nM. For `CCNC(=O)c1ccc(-n2cnc3c(NCCC(F)(F)F)cc(Oc4cccc(O)c4)cc32)cc1C` [Example 95, N-ethyl-4-{6-(3-hydroxyphenoxy)-4-[(3,3,3-trifluoropropyl)amino]-1H-benzimidazol-1-yl}-2-methylbenzamide], the IC50 is 5.6 nM.

In the case of `Cc1cc(-n2cnc3c(NCCC(F)(F)F)cc(Oc4cccc(S(F)(F)(F)(F)F)c4)cc32)ccc1C(=O)NC1CC1` [Example 96, N-cyclopropyl-2-methyl-4-{6-[3-(pentafluoro-lambda^6-sulfanyl)phenoxy]-4-[(3,3,3-trifluoropropyl)amino]-1H-benzimidazol-1-yl}benzamide], the IC50 is 4.8 nM. With `CNC(=O)c1ccc(-n2cnc3c(NCCC(F)(F)F)cc(Oc4ccc(O)cc4F)cc32)cc1C` [Example 97, 4-{6-(2-fluoro-4-hydroxyphenoxy)-4-[(3,3,3-trifluoropropyl)amino]-1H-benzimidazol-1-yl}-N,2-dimethylbenzamide] the figure was 4.6 nM; with `CCNC(=O)c1ccc(-n2cnc3c(NCCC(F)(F)F)cc(Oc4ccc(O)cc4F)cc32)cc1C` [Example 98, N-ethyl-4-{6-(2-fluoro-4-hydroxyphenoxy)-4-[(3,3,3-trifluoropropyl)amino]-1H-benzimidazol-1-yl}-2-methylbenzamide], 4.6 nM; with `CNC(=O)c1ccc(-n2cnc3c(NCCC(F)(F)F)cc(Oc4ccc(O)c(F)c4)cc32)cc1C` [Example 99, 4-{6-(3-fluoro-4-hydroxyphenoxy)-4-[(3,3,3-trifluoropropyl)amino]-1H-benzimidazol-1-yl}-N,2-dimethylbenzamide], 2.4 nM. With `CCNC(=O)c1ccc(-n2cnc3c(NCCC(F)(F)F)cc(Oc4ccc(O)c(F)c4)cc32)cc1C` [Example 100, N-ethyl-4-{6-(3-fluoro-4-hydroxyphenoxy)-4-[(3,3,3-trifluoropropyl)amino]-1H-benzimidazol-1-yl}-2-methylbenzamide] the figure was 3.4 nM; with `COc1ccc(C(=O)c2cc(NCCC(F)(F)F)c3ncn(-c4ccc(C(=O)NC5CC5)c(C)c4)c3c2)cc1F` [Example 101, N-cyclopropyl-4-{6-(3-fluoro-4-methoxybenzoyl)-4-[(3,3,3-trifluoropropyl)amino]-1H-benzimidazol-1-yl}-2-methylbenzamide], 6.4 nM; with `COc1ccc(C(O)c2cc(NCCC(F)(F)F)c3ncn(-c4ccc(C(=O)NC5CC5)c(C)c4)c3c2)cc1F` (stereo not drawn) [Example 102, N-cyclopropyl-4-{6-[(3-fluoro-4-methoxyphenyl)(hydroxy)methyl]-4-[(3,3,3-trifluoropropyl)amino]-1H-benzimidazol-1-yl}-2-methylbenzamide], 1.8 nM. With `C=C(c1ccc(OC)c(F)c1)c1cc(NCCC(F)(F)F)c2ncn(-c3ccc(C(=O)NC4CC4)c(C)c3)c2c1` [Example 104, N-cyclopropyl-4-{6-[1-(3-fluoro-4-methoxyphenyl)vinyl]-4-[(3,3,3-trifluoropropyl)amino]-1H-benzimidazol-1-yl}-2-methylbenzamide] the figure was 2.1 nM.
